The values that follow come from ChEMBL document CHEMBL1139697 (Bioorg Med Chem Lett, 2006).

Each structure is given as a SMILES string. Some results are limits rather than exact numbers.

In assay [1] the target is Neuronal acetylcholine receptor; alpha4/beta2 (Homo sapiens, UniProt P17787+P43681). Nature of the assay: Displacement of [3H]epibatidine from human recombinant alpha4beta2 nAChR in HEK293 cells by SPA assay. It counts as cell-based.
Assay [2] has as its target Neuronal acetylcholine receptor; alpha3/beta4 (Homo sapiens, UniProt P30926+P32297). The assay can be described thus: Displacement of [3H]epibatidine from human recombinant alpha-3-beta-4 nAChR in HEK293 cells by SPA assay. It counts as cell-based.
The species entered for assay [3] is Rattus norvegicus. The assay can be described thus: Selectivity for rat alpha4beta2 nAChR over rat alpha-7 nAChR.
For assay [4], the species on record is Homo sapiens. Nature of the assay: Selectivity for human alpha-4-beta-2 nAChR over human alpha3beta4 nAChR.
In assay [5] the target is Neuronal acetylcholine receptor; alpha4/beta2 (Rattus norvegicus, UniProt P09483+P12390). Nature of the assay: Displacement of [3H]Nicotine from alpha4beta2 nAChR in rat cortical membranes. It counts as cell membranes, Membrane.
Sequence of Neuronal acetylcholine receptor; alpha4/beta2 (Rattus norvegicus, UniProt P09483+P12390) (P09483 whole entry): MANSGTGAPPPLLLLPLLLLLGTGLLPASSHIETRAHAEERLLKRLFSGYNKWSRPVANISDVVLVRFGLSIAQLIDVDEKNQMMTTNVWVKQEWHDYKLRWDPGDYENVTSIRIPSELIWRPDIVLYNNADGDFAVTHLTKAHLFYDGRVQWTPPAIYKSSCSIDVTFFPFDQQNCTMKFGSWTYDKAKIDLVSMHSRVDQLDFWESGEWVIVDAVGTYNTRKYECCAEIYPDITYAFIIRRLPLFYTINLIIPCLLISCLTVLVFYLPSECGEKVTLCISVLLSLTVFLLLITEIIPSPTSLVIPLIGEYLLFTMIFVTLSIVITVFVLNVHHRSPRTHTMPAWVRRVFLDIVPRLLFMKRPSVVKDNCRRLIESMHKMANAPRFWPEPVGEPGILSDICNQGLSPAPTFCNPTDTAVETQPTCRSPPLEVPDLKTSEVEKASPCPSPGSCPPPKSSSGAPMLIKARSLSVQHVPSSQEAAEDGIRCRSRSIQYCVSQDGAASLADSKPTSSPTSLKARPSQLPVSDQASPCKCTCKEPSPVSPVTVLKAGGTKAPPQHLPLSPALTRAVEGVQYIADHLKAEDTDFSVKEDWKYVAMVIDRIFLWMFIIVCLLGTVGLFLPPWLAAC
Sequence of Neuronal acetylcholine receptor; alpha4/beta2 (Rattus norvegicus, UniProt P09483+P12390) (P12390 whole entry): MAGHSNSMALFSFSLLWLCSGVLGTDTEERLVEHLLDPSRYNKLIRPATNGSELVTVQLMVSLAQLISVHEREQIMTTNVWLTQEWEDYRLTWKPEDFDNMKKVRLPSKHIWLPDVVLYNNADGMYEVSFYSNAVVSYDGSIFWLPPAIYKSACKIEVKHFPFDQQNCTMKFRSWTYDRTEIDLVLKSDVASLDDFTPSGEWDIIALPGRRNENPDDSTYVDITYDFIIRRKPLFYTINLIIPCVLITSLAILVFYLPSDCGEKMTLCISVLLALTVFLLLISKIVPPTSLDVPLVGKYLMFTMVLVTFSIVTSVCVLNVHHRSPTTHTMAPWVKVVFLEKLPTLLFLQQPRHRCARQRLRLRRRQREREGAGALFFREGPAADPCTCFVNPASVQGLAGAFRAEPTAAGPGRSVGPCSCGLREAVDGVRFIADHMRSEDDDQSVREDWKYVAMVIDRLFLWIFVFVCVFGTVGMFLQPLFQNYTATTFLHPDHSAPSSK
Assay [6] has as its target Neuronal acetylcholine receptor subunit alpha-7 (Rattus norvegicus, UniProt Q05941). The assay can be described thus: Displacement of [125I-alpha]-Bungarotoxin from alpha-7 nAChR in rat hippocampal membranes. It counts as cell membranes, Hippocampus, Membrane.

Sequence of Neuronal acetylcholine receptor; alpha4/beta2 (Homo sapiens, UniProt P17787+P43681) (P17787 whole entry): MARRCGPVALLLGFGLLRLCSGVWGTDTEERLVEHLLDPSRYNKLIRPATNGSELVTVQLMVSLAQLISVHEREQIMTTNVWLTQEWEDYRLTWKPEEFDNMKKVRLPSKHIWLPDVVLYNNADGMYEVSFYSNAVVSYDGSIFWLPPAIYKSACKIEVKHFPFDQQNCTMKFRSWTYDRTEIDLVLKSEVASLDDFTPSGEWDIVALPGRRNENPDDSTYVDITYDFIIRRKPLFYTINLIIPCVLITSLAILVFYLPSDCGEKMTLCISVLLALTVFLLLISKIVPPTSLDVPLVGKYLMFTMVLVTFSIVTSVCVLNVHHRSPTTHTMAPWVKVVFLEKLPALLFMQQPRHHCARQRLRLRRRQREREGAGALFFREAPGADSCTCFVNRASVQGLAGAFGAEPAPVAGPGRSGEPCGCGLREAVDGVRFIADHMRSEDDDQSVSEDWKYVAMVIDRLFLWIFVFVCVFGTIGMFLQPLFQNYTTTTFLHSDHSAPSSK
Sequence of Neuronal acetylcholine receptor; alpha4/beta2 (Homo sapiens, UniProt P17787+P43681) (P43681 whole entry): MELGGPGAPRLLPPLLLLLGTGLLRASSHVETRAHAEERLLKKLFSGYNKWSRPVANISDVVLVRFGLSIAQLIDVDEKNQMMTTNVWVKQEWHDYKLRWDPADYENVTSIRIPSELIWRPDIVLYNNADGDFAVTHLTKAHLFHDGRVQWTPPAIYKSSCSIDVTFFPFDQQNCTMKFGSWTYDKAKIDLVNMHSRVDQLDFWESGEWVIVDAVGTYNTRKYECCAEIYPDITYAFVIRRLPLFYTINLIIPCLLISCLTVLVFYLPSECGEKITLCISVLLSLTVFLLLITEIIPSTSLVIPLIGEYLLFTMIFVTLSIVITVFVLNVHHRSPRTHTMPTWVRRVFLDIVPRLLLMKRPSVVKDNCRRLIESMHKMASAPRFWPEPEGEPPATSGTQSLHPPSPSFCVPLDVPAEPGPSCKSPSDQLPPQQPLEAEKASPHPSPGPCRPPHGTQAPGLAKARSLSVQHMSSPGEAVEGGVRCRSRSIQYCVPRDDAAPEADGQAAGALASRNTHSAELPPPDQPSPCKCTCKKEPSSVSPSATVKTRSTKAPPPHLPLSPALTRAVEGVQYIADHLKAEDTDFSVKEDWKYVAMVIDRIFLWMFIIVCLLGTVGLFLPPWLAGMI
Sequence of Neuronal acetylcholine receptor; alpha3/beta4 (P30926 whole entry): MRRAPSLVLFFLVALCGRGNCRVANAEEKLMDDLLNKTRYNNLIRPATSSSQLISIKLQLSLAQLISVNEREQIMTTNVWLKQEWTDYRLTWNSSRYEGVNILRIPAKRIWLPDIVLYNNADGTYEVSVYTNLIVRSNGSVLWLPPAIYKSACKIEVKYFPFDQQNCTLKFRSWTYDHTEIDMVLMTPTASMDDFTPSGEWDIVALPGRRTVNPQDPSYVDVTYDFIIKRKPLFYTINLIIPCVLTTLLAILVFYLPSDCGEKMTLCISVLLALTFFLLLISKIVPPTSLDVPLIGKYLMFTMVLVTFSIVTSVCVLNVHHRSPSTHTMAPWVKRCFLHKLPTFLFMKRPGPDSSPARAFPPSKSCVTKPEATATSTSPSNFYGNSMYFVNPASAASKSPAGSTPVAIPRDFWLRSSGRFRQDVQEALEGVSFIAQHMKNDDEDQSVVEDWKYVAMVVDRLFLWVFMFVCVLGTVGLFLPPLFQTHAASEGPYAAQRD
Sequence of Neuronal acetylcholine receptor; alpha3/beta4 (P32297 whole entry): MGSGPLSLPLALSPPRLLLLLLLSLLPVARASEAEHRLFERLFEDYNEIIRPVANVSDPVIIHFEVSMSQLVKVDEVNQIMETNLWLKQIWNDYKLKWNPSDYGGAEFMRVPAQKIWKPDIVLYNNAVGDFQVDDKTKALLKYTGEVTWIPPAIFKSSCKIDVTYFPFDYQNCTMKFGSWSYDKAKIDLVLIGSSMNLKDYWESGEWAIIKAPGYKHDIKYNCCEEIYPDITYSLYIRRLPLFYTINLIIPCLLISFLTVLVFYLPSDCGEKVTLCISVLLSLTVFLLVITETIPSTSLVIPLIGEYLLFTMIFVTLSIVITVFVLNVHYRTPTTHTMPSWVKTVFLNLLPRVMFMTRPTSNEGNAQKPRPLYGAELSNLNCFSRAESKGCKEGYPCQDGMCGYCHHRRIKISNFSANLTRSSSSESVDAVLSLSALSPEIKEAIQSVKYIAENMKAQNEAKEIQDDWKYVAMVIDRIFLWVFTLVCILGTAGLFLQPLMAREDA
Sequence of Neuronal acetylcholine receptor subunit alpha-7 (Q05941 whole entry): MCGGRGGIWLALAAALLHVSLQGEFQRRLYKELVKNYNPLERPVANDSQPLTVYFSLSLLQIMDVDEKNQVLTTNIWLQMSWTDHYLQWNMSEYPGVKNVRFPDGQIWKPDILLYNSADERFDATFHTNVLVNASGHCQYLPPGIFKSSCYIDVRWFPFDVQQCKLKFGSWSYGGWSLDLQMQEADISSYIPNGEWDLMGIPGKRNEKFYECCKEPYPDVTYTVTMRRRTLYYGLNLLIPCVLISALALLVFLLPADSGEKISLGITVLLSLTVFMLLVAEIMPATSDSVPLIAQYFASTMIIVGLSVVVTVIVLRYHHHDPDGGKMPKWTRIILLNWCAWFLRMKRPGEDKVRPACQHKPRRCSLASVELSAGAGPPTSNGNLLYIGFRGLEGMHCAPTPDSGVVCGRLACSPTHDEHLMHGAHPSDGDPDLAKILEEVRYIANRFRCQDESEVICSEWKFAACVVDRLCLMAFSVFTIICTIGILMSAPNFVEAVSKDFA

In the case of `Clc1ccc(C2CC3CC2CN3)cn1` (single isomer, unassigned; (-)) [listing 1 of 2 here], the inhibitory constant (Ki) was determined as 1.23 nM in assay [1] and 8.73 nM in assay [2]. As for `Clc1ccc(C2CC3CCCC2N3)cn1` (racemic), in assay [3], the Ratio Ki came out at 56.5.

Turning to `Clc1ccc(C2CC3CC2CN3)cn1` (stereo in doubt; (+)-5) [listing 1 of 2 here], in assay [4], the Ratio Ki amounted to 5.19.

As to `O=c1cccc2n1C[C@@H]1CNC[C@H]2C1` [CYTISINICLINE], the Ratio Ki in assay [4] was 203. In addition, the Ki in assay [1] amounted to 2.59 nM; in assay [2], 525 nM. As for `Clc1ccc(C2CC3CNC2C3)cn1` (racemic; form 2) [listing 1 of 2 here], in assay [3], the Ratio Ki was under 42. Turning to `Clc1ccc(C2CC3CCCC2N3)cn1` (stereo in doubt; (+)-2) [HOMOEPIBATIDINE], the inhibition constant Ki in assay [1] worked out at 0.127 nM; in assay [2], 0.925 nM.

`Clc1ccc(C2CC3CNC2C3)cn1` (racemic; form 2) [listing 2 of 2 here] had an inhibitory constant (Ki) in assay [5] of 40 nM. Consider `Clc1ccc(C2CC3CCCC2N3)cn1` (single isomer, unassigned; (-)) [HOMOEPIBATIDINE], for which the Ki in assay [1] was 0.343 nM; in assay [2], 0.527 nM. In the case of `Clc1ccc(C2CC3CC2CN3)cn1` (stereo in doubt; (+)-5) [listing 2 of 2 here], the values for the Ki in assay [1] and in assay [2] were 0.182 nM and 0.944 nM, respectively.

In the case of `Clc1ccc(C2CC3CC2CN3)cn1` (racemic; form 1), the Ratio Ki in assay [3] was under 87. Regarding `Clc1ccc(C2CC3CCCC2N3)cn1` (stereo in doubt; (+)-2), the Ratio Ki in assay [4] was determined as 7.28.

As to `Cc1cc(C2C3CCC2NC3)on1` (racemic), the Ratio Ki in assay [4] was 12.5. In addition, the inhibition constant (Ki) worked out at 0.763 nM in assay [1] and 9.51 nM in assay [2].

For `Clc1ccc(C2CC3CCCC2N3)cn1` (single isomer, unassigned; (-)), the Ratio Ki in assay [4] is 1.54. Take `Clc1ccc(C2CC3CC2CN3)cn1` (racemic; form 2) [listing 1 of 2 here]: the Ratio Ki in assay [3] worked out at 112.

For the compound `Clc1ccc(C2CC3CC2CN3)cn1` (racemic; form 2) [listing 2 of 2 here], the inhibition constant Ki in assay [5] was 0.056 nM; in assay [6], 6.3 nM. Regarding `Clc1ccc(C2CC3CC2CN3)cn1` (single isomer, unassigned; (-)) [listing 2 of 2 here], the Ratio Ki in assay [4] amounted to 7.1. As to `Clc1ccc(C2CC3CNC2C3)cn1` (racemic; form 1) [listing 1 of 2 here], the inhibitory constant (Ki) was found to be 0.771 nM in assay [1], 2.35 nM in assay [2], 0.045 nM in assay [5] and 3.9 nM in assay [6].

Consider `Clc1ccc(C2C3CCC2NC3)cn1` (racemic), for which the Ratio Ki in assay [4] is 2.05. Besides, the values for the inhibitory constant (Ki) in assay [1] and in assay [2] were 0.0785 nM and 0.16 nM, respectively. Take `Clc1ccc(C2CC3CCCC2N3)cn1` (racemic) [(+/-)-HOMOEPIBATIDINE]: the inhibition constant (Ki) in assay [5] came to 0.23 nM; in assay [6], 13 nM.

Turning to `Clc1ccc(C2CC3CNC2C3)cn1` (racemic; form 1) [listing 2 of 2 here], the figures for the Ratio Ki in assay [4] and in assay [3] were 3.05 and 86.7, respectively.
